These are literature values, as cited in patent publication US7691903B2, “Oxidation-sensitive hydrophilic active principle containing composition and use thereof” (L'Oreal, priority 2002, dated 2010).

The conditions of this data set: ascorbic acid derivatives; J. Am. Acad. Dermatol., 1996, 34, 29-33.

In the case of `O=C1O[C@H]([C@@H](O)CO)C([O-])=C1OP(=O)([O-])[O-].O=C1O[C@H]([C@@H](O)CO)C([O-])=C1OP(=O)([O-])[O-].[Mg+2].[Mg+2].[Mg+2]` [magnesium ascorbyl phosphate], the bioavailability result is “very low”.
